Measured values published in patent US10188737B2, “Stabilized pharmaceutical composition” (ASTELLAS PHARMA INC., priority 2015, dated 2019).

Legend:
[1] = Stability of mixture with milled lactose hydrate in capsules, sealed plastic bottles, 25° C. and 60% RH, related substance (HPLC); assay type: physicochemical; conditions: dimer of compound A (RRT about 1.34)
Experimental: (§1) The amounts of generated related substances were measured by a high performance liquid chromatographic method (an HPLC method). The amount of a related substance is calculated by measuring the peak area of each related substance contained in a pharmaceutical composition by the HPLC method, and dividing the peak area of a dimer of compound A (a related substance detected at a relative retention time of about 1.34) by the total peak area of all related substances, including compound A or a pharmaceutically acceptable salt thereof and the dimer of compound A. • Measurement wavelength: 210 nm • Column: YMC-Triart C18 (4.6 mm×150 mm, 3 μm) • Column temperature: a constant temperature around 40° C. • Mobile phase: A mixed solution of 45 mM perchloric acid aqueous solution and acetonitrile • Flow rate: about 1.2 mL/min. • Injection amount: 10 μg (corresponding to compound A) (Measurement of Water Activity)
After 1.171 mg of compound A monomethanesulfonate and 98.829 mg of milled lactose hydrate (Pharmatose 200 M, DFE Pharma) were mixed, the obtained mixture was filled into hypromellose capsules. […] After the storage, the amount of a related substance (the amount of a dimer of compound A at a relative retention time of about 1.34) was measured under the same conditions as those of Experimental Example 1. […]

[2] = Stability of mixtures with pharmaceutical additives, sealed bottles in aluminum bags, 25° C. or 40° C., related substance (HPLC); assay type: physicochemical; conditions: dimer of compound A (RRT about 1.34), N = 2, values less than 0.05% (quantitative limit) are reference values
Experimental: as §1
The mixtures obtained in Examples 4 to 11 and Comparative Examples 1 to 2, as well as compound A monomethanesulfonate, were put into plastic bottles. […] After the storage, the amount of a related substance (the amount of a dimer of compound A at a relative retention time of about 1.34) was measured under the same conditions as those of Experimental Example 1. […]

[3] = Water activity value of pharmaceutical additives, humidity conditions versus dry state; assay type: physicochemical; conditions: N = 3; for Water activity value, Opened / Water activity value, Sealed: additive alone; for Water activity value, Opened: 25° C. and 60% RH (opened) for 3 days; for Water activity value, Sealed: in bottles at 25° C. for 3 days in the presence of a desiccant; for Water activity value, Difference: opened minus sealed
Experimental: A water activity meter (AQUA LAB Series 4TE (AQUA LAB)) was used to measure the water activity value of each pharmaceutical composition (including a capsule shell) at 25° C.
Pharmaceutical additives (5000 mg each) used in Examples 4 to 11 and Comparative Examples 1 to 2 were allowed to stand in bottles (30 mL) at 25° C. for 3 days in the presence of a desiccant (2 g), and the water activity value was measured under the same conditions as those of Experimental Example 1. Further, the same samples were allowed to stand in bottles under storage conditions of 25° C. and 60% RH (opened) for 3 days, and the water activity value was measured under the same conditions as those of Experimental Example 1
The difference between the water activity value after the storage in the opened state and the water activity value after the storage in the sealed state is summarized in Table 7.

[4] = test system: epidermal growth factor receptor (EGFR) mutant kinase; conditions: disclosed in Patent literature 1 (WO 2013/108754); cited from earlier work

Question: Which “Amount of related substance, 25° C. · 60% RH After 1 month” value [1] does the source give for `C=CC(=O)N1CC[C@@H](Oc2nc(Nc3ccc(N4CCC(N5CCN(C)CC5)CC4)cc3)c(C(N)=O)nc2CC)C1.CS(=O)(=O)O` [Compound A monomethanesulfonate (alone), 5-{[(3R)-1-acryloylpyrrolidin-3-yl]oxy}-6-ethyl-3-({4-[4-(4-methylpiperazin-1-yl)piperidin-1-yl]phenyl}amino)-pyrazine-2-carboxamide monomethanesulfonate] here?
Answer: Its value is 0.44%.

Question: What about the “Amount of related substance, 25° C., After 1 month” value ([2]; 25° C.) of the same molecule?
Answer: The value was 0.03%.

Question: And the “Amount of related substance, 40° C., After 1 month” value ([2]; 40° C.)?
Answer: Its value is 0.03%.

Question: Which results are given for `O.OC[C@H]1O[C@@H](O[C@H]2[C@H](O)[C@@H](O)C(O)O[C@@H]2CO)[C@H](O)[C@@H](O)[C@H]1O` (stereo partly shown) [Lactose hydrate]?
Answer: Water activity value, Opened [3]: 0.46; Water activity value, Sealed [3]: 0.30; Water activity value, Difference [3]: 0.16

Question: For `OC[C@@H](O)[C@@H](O)[C@H](O)[C@H](O)CO` [Mannitol], which “Water activity value, Opened” value [3] is on record?
Answer: Its value is 0.45.

Question: What about the “Water activity value, Sealed” value [3] of the same molecule?
Answer: Its value is 0.35.

Question: And the “Water activity value, Difference” value [3]?
Answer: The value was 0.10.

Question: With `OC[C@H]1O[C@@](CO)(O[C@H]2O[C@H](CO)[C@@H](O)[C@H](O)[C@H]2O)[C@@H](O)[C@@H]1O` [Sucrose] as the molecule, how does the “Water activity value, Opened” value [3] read?
Answer: The value was 0.43.

Question: And the “Water activity value, Sealed” value [3]?
Answer: Its value is 0.38.

Question: What about the “Water activity value, Difference” value [3] of the same molecule?
Answer: Its value is 0.05.

Question: For `OC[C@H]1O[C@H](O[C@H]2O[C@H](CO)[C@@H](O)[C@H](O)[C@H]2O)[C@H](O)[C@@H](O)[C@@H]1O` [Trehalose], which “Water activity value, Opened” value [3] is on record?
Answer: The value was 0.40.

Question: And the “Water activity value, Sealed” value [3]?
Answer: Its value is 0.32.

Question: And the “Water activity value, Difference” value [3]?
Answer: The value was 0.08.

Question: For `C=CC(=O)N1CC[C@@H](Oc2nc(Nc3ccc(N4CCC(N5CCN(C)CC5)CC4)cc3)c(C(N)=O)nc2CC)C1` [compound A, 5-{[(3R)-1-Acryloylpyrrolidin-3-yl]oxy}-6-ethyl-3-({4-[4-(4-methylpiperazin-1-yl)piperidin-1-yl]phenyl}amino)-pyrazine-2-carboxamide], which “inhibitory action on an epidermal growth factor receptor (EGFR) mutant kinase” value [4] is on record?
Answer: Its value is “confirmed”.
